# According to publication PMC3266934, “The Murine Coronavirus Hemagglutinin-esterase Receptor-binding Site: A Major Shift in Ligand Specificity through Modest Changes in Architecture” (PLoS Pathogens, 2012):
# Target: T1, MHV-S HE ectodomain (HE / HE^0) (Murine hepatitis virus strain S, UniProt P31614)
# T1 construct: HEK293T or HEK293 GnTI(-); codon-optimized synthetic gene; homodimer
# Test: GC-MS of enzymatic de-O-acetylation
# Type: biochemical
# Details: sialate-4-O-acetylesterase site; thrombin-released ectodomain
# T1 sequence (P31614 25-403): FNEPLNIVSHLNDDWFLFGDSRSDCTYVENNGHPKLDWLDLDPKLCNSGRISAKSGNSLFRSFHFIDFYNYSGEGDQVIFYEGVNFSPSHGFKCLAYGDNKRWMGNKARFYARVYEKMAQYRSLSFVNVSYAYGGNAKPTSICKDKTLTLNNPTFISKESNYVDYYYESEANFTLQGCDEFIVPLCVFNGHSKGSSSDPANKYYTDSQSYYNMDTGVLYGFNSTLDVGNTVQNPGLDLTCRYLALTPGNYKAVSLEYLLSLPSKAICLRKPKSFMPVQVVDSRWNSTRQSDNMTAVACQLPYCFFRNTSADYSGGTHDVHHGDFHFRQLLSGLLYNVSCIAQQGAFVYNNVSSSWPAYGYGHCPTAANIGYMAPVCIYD
compound,measurement,value
"CO[C@]1(C(=O)O)C[C@H](OC(C)=O)[C@@H](NC(C)=O)[C@H]([C@H](O)[C@H](O)COC(C)=O)O1 [αNeu4,5,9Ac32Me, 5-N-acetyl-4,9-di-O-acetylneuraminic acid α-methylglycoside]",GC-MS of enzymatic de-O-acetylation,retained proper sialate-4-O-acetylesterase activity when assayed for substrate specificity with a synthetic di-O-acetylated Sia
